The source of these data is patent US10815540B2, “Treatments to eliminate HIV reservoirs and reduce viral load” (INSTITUT PASTEUR, priority 2017, dated 2020).

The test system of assay [1] is SIVmac251. As to conditions: two weeks treatment with GA, in less than 2 months, chronic SIV infection, no anti-retroviral therapy, pilot study with 2 animals. The procedure:
Correlation between the plasma viral load and the classical CD8 T cells (FIG. 9B) and with the HLA-E restricted CD8 T cells (FIG. 9C) were evaluated. The Spearman coefficients (r) and p-values are indicated.

The subject of assay [2] is HLA-E on CD4 T cells. The source says:
Follow-up of the percentage of CD4 T cells expressing MHC-E on their surface (FIG. 7D).

Assay [3] relates to CD32a^high CD4 T cells expressing HLA-E. As to conditions: spleen, 2 macaques treated with GA. An excerpt: FIG. 10A) Flow cytometry dot plots. CD32a^highHLA-E^+ CD4^+ T cells from AGM and macaques are shown in blue. […] MAC=macaque.
Assay [4] relates to HLA-E restricted CD8 T cells. As to conditions: at euthanasia, GA treated animal versus chronically SIV infected AGM.
For assay [5], the system named is HLA-E restricted CD8 T cells. As to conditions: at around day 25, chronically SIV-infected GA treated macaques, versus 20%.
For assay [6], the system named is HLA-E restricted (NKG2A/C+) NK cells. As to conditions: at around day 25, chronically SIV-infected GA treated macaques, versus 20%.
Assay [7] has as its system pathogenic CD4 T cells. As to conditions: in vivo; cited from earlier work.
For assay [8] the following is noted: MS patients treated with GA for >10 years; cited from earlier work.

Read-outs that look alike come from different tables or passages of the source.

“L-glutamic acid polymer with L-alanine, L-lysine and L-tyrosine, acetate (salt) [GA]” gave a decrease of viremia in assay [1] not above 2 logs. For the same substance, the “expression of HLA-E on CD4 T cells” value is on record as “increase HLA-E levels” in assay [2] (animal the most advanced in disease, no HLA-E before treatment, continued to increase after treatment cessation) and “remained as high” in assay [2] (animal with already very high expression before treatment). Besides, the “effect on latently infected cells (CD32a^high CD4 T)” value in assay [3] is given as “targets CD32a^high CD4 T cells expressing HLA-E”. Further, the “levels of HLA-E restricted CD8 T cells in the intestine” value in assay [4] is listed as “comparable levels or even higher to those in AGM”. Also, the “CD107a on HLA-E restricted CD8 T cells” value in assay [5] was found to be 60%. The “CD107a on NK cells” value in assay [6] is 60%. Further, in assay [7], the “efficacy in mouse model of inflammatory bowel diseases” value is reported as “efficient”. Also, the efficacy result in assay [8] is recorded as “long-term efficacy”.
